Laboratory results as given in US20090069565A1, “NEW INDOLE DERIVATIVES AS FACTOR XA INHIBITORS” (priority 2001, published 2009).

target: human factor Xa (Homo sapiens, UniProt P00742); test: Factor Xa assay (chromogenic, substrate S-2765); assay type: biochemical; details: inhibition constant for factor Xa; purified enzyme 0.5 nM, substrate S-2765 140 μM, 25° C., pH 7.8; Ki=IC50/{1+(substrate concentration/Km)}; read-out: Ki(FXa);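 further: purified enzyme preincubated with inhibitor for 10 min before substrate addition, final reaction volume 100 µl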
Sequence (P00742 235-488 limits assumed): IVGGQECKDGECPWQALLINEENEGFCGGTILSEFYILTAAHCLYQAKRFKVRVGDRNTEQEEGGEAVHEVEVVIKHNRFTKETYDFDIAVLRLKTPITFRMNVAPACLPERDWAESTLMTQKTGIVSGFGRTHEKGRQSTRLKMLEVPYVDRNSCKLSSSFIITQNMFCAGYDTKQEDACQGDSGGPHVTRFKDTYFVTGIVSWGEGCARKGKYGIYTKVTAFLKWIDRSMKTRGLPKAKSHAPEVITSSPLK
Sequence (P00742 41-179 partner limits assumed): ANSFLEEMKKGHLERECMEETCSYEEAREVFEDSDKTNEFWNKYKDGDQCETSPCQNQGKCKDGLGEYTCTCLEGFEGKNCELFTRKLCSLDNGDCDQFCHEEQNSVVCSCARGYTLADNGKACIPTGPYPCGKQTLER

For `CC(C)N1CCC(NC(=O)c2cc3ccccc3n2CC(=O)Nc2ccc(Cl)cc2)CC1` [Example 248, 1-[(4-chloro-phenylcarbamoyl)-methyl]-1H-indole-2-carboxylic acid (1-isopropyl-piperidin-4-yl)-amide], which Ki is on record?
Its Ki is 3 nM.

Which Ki does the source give for `CC(C)N1CCC(NC(=O)c2cc3ccccc3n2CC(=O)Nc2ccc(Cl)s2)CC1` [Example 249, 1-[(5-chloro-thiophen-2-ylcarbamoyl)-methyl]-1H-indole-2-carboxylic acid (1-isopropyl-piperidin-4-yl)-amide] here?
Its Ki is 15 nM.

With `O=C(NC1CCN(CCO)CC1)c1cc2ccccc2n1Cc1cc(-c2ccc(Cl)s2)on1` [Example 260, 1-[5-(5-chloro-thiophen-2-yl)-isoxazol-3-ylmethyl]-1H-indole-2-carboxylic acid [1-(2-hydroxy-ethyl)-piperidin-4-yl]-amide] as the molecule, how does the Ki read?
Its Ki is 131 nM.

same assay, conditions: read-out: Ki(FXa)

With `CC(C)N1CCC(NC(=O)c2cc3cc(C(=O)O)ccc3n2Cc2nnc(-c3ccc(Cl)s3)s2)CC1` [Example 242, 1-[5-(5-Chloro-thiophen-2-yl)-[1,3,4]thiadiazol-2-ylmethyl]-2-(1-isopropyl-piperidin-4-ylcarbamoyl)-1H-indole-5-carboxylic acid] as the molecule, how does the Ki read?
The Ki was 4 nM.

`CC(C)OC(=O)c1ccc2c(c1)cc(C(=O)NC1CCN(C(C)C)CC1)n2CC(=O)Nc1ccc(Cl)cc1` [Example 243, 1-[(4-Chloro-phenylcarbamoyl)-methyl]-2-(1-isopropyl-piperidin-4-ylcarbamoyl)-1H-indole-5-carboxylic acid isopropyl ester] was tested. Which Ki did it give?
The Ki was 10 nM.

Which Ki does the source give for `CC(C)N1CCC(NC(=O)c2cc3cc(C(=O)O)ccc3n2CC(=O)Nc2ccc(Cl)cc2)CC1` [Example 244, 1-[(4-Chloro-phenylcarbamoyl)-methyl]-2-(1-isopropyl-piperidin-4-ylcarbamoyl)-1H-indole-5-carboxylic acid] here?
The Ki was 4 nM.

`CC(C)N1CCC(NC(=O)c2cc3c(C(=O)O)cccc3n2Cc2cc(-c3ccc(Cl)s3)on2)CC1` [Example 246, 1-[5-(5-Chloro-thiophen-2-yl)-isoxazol-3-ylmethyl]-2-(1-isopropyl-piperidin-4-ylcarbamoyl)-1H-indole-4-carboxylic acid] was tested. Which Ki did it give?
The Ki was 4 nM.

How did the Ki turn out when `CC(C)N1CCC(NC(=O)c2cc3cc(C(N)=O)ccc3n2Cc2cc(-c3ccc(Cl)s3)on2)CC1` [Example 247, 1-[5-(5-Chloro-thiophen-2-yl)-isoxazol-3-ylmethyl]-1H-indole-2,5-dicarboxylic acid 5-amide 2-[(1-isopropyl-piperidin-4-yl)-amide]] was run?
Its Ki is 24 nM.

With `CC(C)N1CCC(NC(=O)c2cc3ccccc3n2CC(=O)Nc2ccc(Cl)cc2F)CC1` [Example 250, 1-[(4-chloro-2-fluoro-phenylcarbamoyl)-methyl]-1H-indole-2-carboxylic acid (1-isopropyl-piperidin-4-yl)-amide] as the molecule, how does the Ki read?
Its Ki is 31 nM.

For `O=C(Cn1c(C(=O)NCC2CCN(c3ccncc3)CC2)cc2ccccc21)Nc1ccc(Cl)cc1` [Example 252, 1-[(4-chloro-phenylcarbamoyl)-methyl]-1H-indole-2-carboxylic acid (3,4,5,6-tetrahydro-2H-[1,4′]bipyridinyl-4-ylmethyl)-amide], which Ki is on record?
The Ki was 230 nM.

With `O=C(Cn1c(C(=O)NC2CCN(c3ccncc3)CC2)cc2ccccc21)Nc1ccc(Cl)cc1` [Example 253, 1-[(4-chloro-phenylcarbamoyl)-methyl]-1H-indole-2-carboxylic acid (3,4,5,6-tetrahydro-2H-[1,4′]bipyridinyl-4-yl)-amide] as the molecule, how does the Ki read?
Its Ki is 340 nM.

How did the Ki turn out when `O=C(Cn1c(C(=O)N2CCC(Nc3ccncc3)CC2)cc2ccccc21)Nc1ccc(Cl)cc1` [Example 254, N-(4-chloro-phenyl)-2-{2-[4-(pyridin-4-ylamino)-piperidine-1-carbonyl]-indol-1-yl}-acetamide] was run?
Its Ki is 223 nM.

With `O=C(Cn1c(C(=O)NC2CCN(C3CC3)CC2)cc2ccccc21)Nc1ccc(Cl)cc1` [Example 255, 1-[(4-chloro-phenylcarbamoyl)-methyl]-1H-indole-2-carboxylic acid (1-cyclopropyl-piperidin-4-yl)-amide] as the molecule, how does the Ki read?
Its Ki is 106 nM.

For `O=C(Cn1c(C(=O)N2CCC(N3CCCC3)CC2)cc2ccccc21)Nc1ccc(Cl)cc1` [Example 256, N-(4-chloro-phenyl)-2-[2-(4-pyrrolidin-1-yl-piperidine-1-carbonyl)-indol-1-yl]-acetamide], which Ki is on record?
Its Ki is 754 nM.

Which Ki does the source give for `CC(C)N1CCC(NC(=O)c2cc3cc([N+](=O)[O-])ccc3n2CC(=O)Nc2ccc(Cl)cc2)CC1` [Example 257, 1-[(4-chloro-phenylcarbamoyl)-methyl]-5-nitro-1H-indole-2-carboxylic acid (1-isopropyl-piperidin-4-yl)-amide] here?
The Ki was 6 nM.

Which Ki does the source give for `CC(C)N1CCC(NC(=O)c2cc3c(Cl)c(N)ccc3n2Cc2cc(-c3ccc(Cl)s3)on2)CC1` [Example 258, 5-amino-4-chloro-1-[5-(5-chloro-thiophen-2-yl)-isoxazol-3-ylmethyl]-1H-indole-2-carboxylic acid (1-isopropyl-piperidin-4-yl)-amide] here?
The Ki was 11 nM.

Which Ki does the source give for `N#CCN1CCC(NC(=O)c2cc3ccccc3n2Cc2cc(-c3ccc(Cl)s3)on2)CC1` [Example 259, 1-[5-(5-chloro-thiophen-2-yl)-isoxazol-3-ylmethyl]-1H-indole-2-carboxylic acid (1-cyanomethyl-piperidin-4-yl)-amide] here?
The Ki was 772 nM.

How did the Ki turn out when `COCCN1CCC(NC(=O)c2cc3ccccc3n2Cc2cc(-c3ccc(Cl)s3)on2)CC1` [Example 261, 1-[5-(5-chloro-thiophen-2-yl)-isoxazol-3-ylmethyl]-1H-indole-2-carboxylic acid [1-(2-methoxy-ethyl)-piperidin-4-yl]-amide] was run?
Its Ki is 139 nM.

For `NC(=O)CN1CCC(NC(=O)c2cc3ccccc3n2Cc2cc(-c3ccc(Cl)s3)on2)CC1` [Example 262, 1-[5-(5-chloro-thiophen-2-yl)-isoxazol-3-ylmethyl]-1H-indole-2-carboxylic acid (1-carbamoylmethyl-piperidin-4-yl)-amide], which Ki is on record?
Its Ki is 250 nM.

With `CNC(=O)CN1CCC(NC(=O)c2cc3ccccc3n2Cc2cc(-c3ccc(Cl)s3)on2)CC1` [Example 263, 1-[5-(5-chloro-thiophen-2-yl)-isoxazol-3-ylmethyl]-1H-indole-2-carboxylic acid (1-methylcarbamoylmethyl-piperidin-4-yl)-amide] as the molecule, how does the Ki read?
The Ki was 580 nM.

`O=C(NC1CCN(Cc2ncc[nH]2)CC1)c1cc2ccccc2n1Cc1cc(-c2ccc(Cl)s2)on1` [Example 264, 1-[5-(5-chloro-thiophen-2-yl)-isoxazol-3-ylmethyl]-1H-indole-2-carboxylic acid [1-(1H-imidazol-2-ylmethyl)-piperidin-4-yl]-amide] was tested. Which Ki did it give?
Its Ki is 559 nM.

How did the Ki turn out when `Cn1ccnc1CN1CCC(NC(=O)c2cc3ccccc3n2Cc2cc(-c3ccc(Cl)s3)on2)CC1` [Example 265, 1-[5-(5-chloro-thiophen-2-yl)-isoxazol-3-ylmethyl]-1H-indole-2-carboxylic acid [1-(1-methyl-1H-imidazol-2-ylmethyl)-piperidin-4-yl]-amide] was run?
Its Ki is 404 nM.

For `NCC(=O)N1CCC(NC(=O)c2cc3ccccc3n2Cc2cc(-c3ccc(Cl)s3)on2)CC1` [Example 267, 1-[5-(5-chloro-thiophen-2-yl)-isoxazol-3-ylmethyl]-1H-indole-2-carboxylic acid [1-(2-amino-acetyl)-piperidin-4-yl]-amide], which Ki is on record?
Its Ki is 891 nM.

Which Ki does the source give for `CCOC(=O)OC(C)OC(=O)c1ccc2c(c1)cc(C(=O)NC1CCN(C(C)C)CC1)n2Cc1cc(-c2ccc(Cl)s2)on1` (stereo not shown) [Example 268, 1-[5-(5-Chloro-thiophen-2-yl)-isoxazol-3-ylmethyl]-2-(1-isopropyl-piperidin-4-ylcarbamoyl)-1H-indole-5-carboxylic acid 1-ethoxycarbonyloxy-ethyl ester] here?
Its Ki is 42 nM.

For `CCOC(=O)OC(C)OC(=O)c1cccc2c1cc(C(=O)NC1CCN(C(C)C)CC1)n2Cc1cc(-c2ccc(Cl)s2)on1` (stereo not shown) [Example 269, 1-[5-(5-Chloro-thiophen-2-yl)-isoxazol-3-ylmethyl]-2-(1-isopropyl-piperidin-4-ylcarbamoyl)-1H-indole-4-carboxylic acid 1-ethoxycarbonyloxy-ethyl ester], which Ki is on record?
Its Ki is 7 nM.

For `CC(C)N1CCC(NC(=O)c2cc3c(C(=O)OCOC(=O)C(C)(C)C)cccc3n2Cc2cc(-c3ccc(Cl)s3)on2)CC1` [Example 270, 1-[5-(5-Chloro-thiophen-2-yl)-isoxazol-3-ylmethyl]-2-(1-isopropyl-piperidin-4-ylcarbamoyl)-1H-indole-4-carboxylic acid 2,2-dimethyl-propionyloxymethyl ester], which Ki is on record?
The Ki was 13 nM.

With `CC(OC(=O)c1ccc2c(c1)cc(C(=O)NC1CCN(C(C)C)CC1)n2Cc1cc(-c2ccc(Cl)s2)on1)OC(=O)C(C)(C)C` (stereo not shown) [Example 271, 1-[5-(5-Chloro-thiophen-2-yl)-isoxazol-3-ylmethyl]-2-(1-isopropyl-piperidin-4-ylcarbamoyl)-1H-indole-5-carboxylic acid 1-(2,2-dimethyl-propionyloxy)-ethyl ester] as the molecule, how does the Ki read?
Its Ki is 92 nM.

Which Ki does the source give for `CC(OC(=O)c1cccc2c1cc(C(=O)NC1CCN(C(C)C)CC1)n2Cc1cc(-c2ccc(Cl)s2)on1)OC(=O)C(C)(C)C` (stereo not shown) [Example 272, 1-[5-(5-Chloro-thiophen-2-yl)-isoxazol-3-ylmethyl]-2-(1-isopropyl-piperidin-4-ylcarbamoyl)-1H-indole-4-carboxylic acid 1-(2,2-dimethyl-propionyloxy)-ethyl ester] here?
The Ki was 17 nM.
